The record followed here is patent publication US20020065303A1, “Bivalent phenylene inhibitors of factor Xa” (priority 2000, published 2002).

Molecules are shown by their SMILES.

Assay type in all cases: biochemical
One test addresses Thrombin (Homo sapiens, UniProt P00734). In words: Thrombin amidolytic assay (chromogenic substrate Chromozym TH). The settings on record: room temperature, pH 7.5, 5 min preincubation; read-out: Inhibitory Activity (IC50) Thrombin IIa. Here is the method: (§1) The compounds of the present invention are dissolved in buffer to give solutions containing concentrations such that assay concentrations range from about 0 to about 100 μM. In the assays for thrombin, prothrombinase and factor Xa, a synthetic chromogenic substrate is added to a solution containing test compound and the enzyme of interest and the residual catalytic activity of that enzyme is determined spectrophotometrically. The IC50 of a compound is determined from the substrate turnover. The IC50 is the concentration of test compound giving about 50% inhibition of the substrate turnover.
(§2) The factor Xa and thrombin assays are performed at room temperature, in 0.02 M Tris.HCl buffer, pH 7.5, containing 0.15 M NaCl. The rates of hydrolysis of the para-nitroanilide substrate S-2765 (Chromogenix) for factor Xa, and the substrate Chromozym TH (Boehringer Mannheim) for thrombin following preincubation of the enzyme with inhibitor for 5 minutes at room temperature, and are determined using the Softmax 96-well plate reader (Molecular Devices), monitored at 405 nm to measure the time dependent appearance of p-nitroaniline.

Another test has as its target Factor Xa (Homo sapiens, UniProt P00742). In words: Factor Xa amidolytic assay (chromogenic substrate S-2765). The settings on record: room temperature, pH 7.5, 5 min preincubation; read-out: Inhibitory Activity (IC50) Factor Xa Xa. Here is the method:
as §1, §2

A further test deals with Prothrombinase (Homo sapiens, UniProt P00742). The test can be described thus: Prothrombinase inhibition assay, plasma free system. The settings on record: factor Xa 0.5 nM, factor Va 2 nM, PS:PC, 5 min preincubation; read-out: Inhibitory Activity (IC50) Prothrombinase IIase. Here is the method: as §1
Chain of Prothrombinase (P00742 235-488 limits assumed): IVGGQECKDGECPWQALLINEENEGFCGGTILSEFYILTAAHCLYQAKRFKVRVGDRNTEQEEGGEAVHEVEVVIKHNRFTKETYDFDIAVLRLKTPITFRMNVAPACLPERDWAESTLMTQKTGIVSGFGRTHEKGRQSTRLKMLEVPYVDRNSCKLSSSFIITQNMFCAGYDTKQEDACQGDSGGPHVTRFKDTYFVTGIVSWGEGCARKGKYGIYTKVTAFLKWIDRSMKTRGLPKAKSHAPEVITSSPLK
Chain of Prothrombinase (P00742 41-179 limits assumed): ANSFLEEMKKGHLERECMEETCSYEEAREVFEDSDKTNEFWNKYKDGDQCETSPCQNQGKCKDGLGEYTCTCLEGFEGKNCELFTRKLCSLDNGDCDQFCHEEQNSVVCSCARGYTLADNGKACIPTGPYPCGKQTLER
Chain of Prothrombinase (P12259 29-737 partner limits assumed): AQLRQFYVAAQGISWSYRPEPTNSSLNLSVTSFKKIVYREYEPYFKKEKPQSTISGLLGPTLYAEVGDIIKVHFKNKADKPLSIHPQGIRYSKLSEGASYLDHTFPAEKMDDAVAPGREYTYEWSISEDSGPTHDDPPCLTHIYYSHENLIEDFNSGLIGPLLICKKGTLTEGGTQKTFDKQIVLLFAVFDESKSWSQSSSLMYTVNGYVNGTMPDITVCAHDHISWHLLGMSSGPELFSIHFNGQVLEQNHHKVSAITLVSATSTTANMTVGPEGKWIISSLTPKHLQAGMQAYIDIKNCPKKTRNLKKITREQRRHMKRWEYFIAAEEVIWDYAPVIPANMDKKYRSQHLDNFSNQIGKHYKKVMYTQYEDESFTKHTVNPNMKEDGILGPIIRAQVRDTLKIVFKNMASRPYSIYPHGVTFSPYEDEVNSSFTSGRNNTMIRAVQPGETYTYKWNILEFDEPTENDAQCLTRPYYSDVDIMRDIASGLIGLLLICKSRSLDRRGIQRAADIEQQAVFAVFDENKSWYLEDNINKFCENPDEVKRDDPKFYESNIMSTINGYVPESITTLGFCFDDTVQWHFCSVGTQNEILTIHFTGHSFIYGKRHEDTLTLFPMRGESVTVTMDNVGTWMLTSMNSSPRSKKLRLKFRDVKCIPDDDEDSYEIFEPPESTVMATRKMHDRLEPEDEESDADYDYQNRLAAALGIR
Chain of Prothrombinase (P12259 1574-2224 partner limits assumed): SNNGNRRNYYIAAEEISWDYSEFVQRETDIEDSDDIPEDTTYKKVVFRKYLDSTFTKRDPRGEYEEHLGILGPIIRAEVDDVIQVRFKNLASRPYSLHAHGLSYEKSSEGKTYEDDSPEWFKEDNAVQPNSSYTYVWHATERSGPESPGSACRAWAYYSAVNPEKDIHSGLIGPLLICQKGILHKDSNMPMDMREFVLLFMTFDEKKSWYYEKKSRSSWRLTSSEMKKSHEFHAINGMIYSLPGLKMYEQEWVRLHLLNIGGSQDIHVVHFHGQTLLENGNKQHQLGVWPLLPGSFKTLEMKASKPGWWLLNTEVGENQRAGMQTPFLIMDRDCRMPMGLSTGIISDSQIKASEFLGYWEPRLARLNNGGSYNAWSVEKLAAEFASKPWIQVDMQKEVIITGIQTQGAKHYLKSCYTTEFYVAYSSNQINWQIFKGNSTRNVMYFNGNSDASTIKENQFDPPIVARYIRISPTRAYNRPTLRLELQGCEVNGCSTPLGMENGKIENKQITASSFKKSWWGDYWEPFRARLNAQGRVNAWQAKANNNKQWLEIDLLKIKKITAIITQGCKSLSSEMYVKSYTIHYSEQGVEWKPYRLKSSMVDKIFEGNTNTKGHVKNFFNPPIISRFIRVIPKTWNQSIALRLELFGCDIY
The prothrombinase inhibition assay is performed in a plasma free system with modifications to the method described by Sinha, U. et al., Thromb. Res., 75, 427-436 (1994). Specifically, the activity of the prothrombinase complex is determined by measuring the time course of thrombin generation using the p-nitroanilide substrate Chromozym TH. The assay consists of preincubation (5 minutes) of selected compounds to be tested as inhibitors with the complex formed from factor Xa (0.5 nM), factor Va (2 nM), phosphatidyl serine:phosphatidyl choline (25:75, 20 μM) in 20 mM Tris.HCl buffer, pH 7.5, containing 0.15 M NaCl, 5 mM CaCl2 and 0.1% bovine serum albumin. […] The rate of substrate cleavage is monitored at 405 nm for two minutes. […]

Chain of Factor Xa (P00742 235-488 limits assumed): as the sequence (P00742 235-488 limits assumed) above
Chain of Factor Xa (P00742 41-179 limits assumed): as the sequence (P00742 41-179 limits assumed) above

With `COC(=O)C(Cc1cccc(C(=N)N)c1)NC(=O)c1ccc(OC2CCN(C(C)=N)CC2)cc1` (stereo not drawn), the IC50 on Thrombin worked out at 270 µM; at Factor Xa, 0.201 µM; on Prothrombinase it was 4 µM.
Take `CC(=N)N1CCC(Oc2ccc(C(=O)NCc3cccc(C(=N)N)c3)cc2)CC1`: the IC50 at Thrombin turned out to be 139 µM; at Factor Xa, 0.059 µM; at Prothrombinase, 20 µM.
